Test results as given in ChEMBL document CHEMBL2074272, “Proton-coupled oligopeptide transport by rat renal cortical brush border membrane vesicles: a functional analysis using ACE inhibitors to determine the isoform of the transporter” (Biochim Biophys Acta, 1998).

What was measured:
[1] = target: T1, Solute carrier family 15 member 1 (Rattus norvegicus) (UniProt P51574); experiment: TP_TRANSPORTER: uptake in Xenopus laevis oocytes; format: functional, cell-based; conditions: Oocyte
T1 sequence (whole entry): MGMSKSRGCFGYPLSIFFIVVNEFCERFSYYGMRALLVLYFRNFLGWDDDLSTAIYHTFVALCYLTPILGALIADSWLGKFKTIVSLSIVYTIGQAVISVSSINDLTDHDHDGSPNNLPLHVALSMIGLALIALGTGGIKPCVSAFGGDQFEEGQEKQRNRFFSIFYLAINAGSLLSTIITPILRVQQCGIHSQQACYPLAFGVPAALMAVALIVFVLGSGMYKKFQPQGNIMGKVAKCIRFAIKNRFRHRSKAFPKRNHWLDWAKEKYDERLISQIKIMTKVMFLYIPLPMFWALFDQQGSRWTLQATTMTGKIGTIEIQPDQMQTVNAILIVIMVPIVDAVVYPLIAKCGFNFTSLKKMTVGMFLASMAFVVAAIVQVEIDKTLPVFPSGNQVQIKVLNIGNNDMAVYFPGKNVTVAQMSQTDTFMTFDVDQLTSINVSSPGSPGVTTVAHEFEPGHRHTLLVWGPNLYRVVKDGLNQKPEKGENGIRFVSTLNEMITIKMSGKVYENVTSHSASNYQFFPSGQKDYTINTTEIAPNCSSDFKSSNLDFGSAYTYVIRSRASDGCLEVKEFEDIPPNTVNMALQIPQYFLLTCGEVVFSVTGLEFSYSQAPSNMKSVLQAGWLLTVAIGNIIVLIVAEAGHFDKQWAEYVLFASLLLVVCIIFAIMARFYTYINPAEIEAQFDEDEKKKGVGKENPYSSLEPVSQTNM

[2] = target: T2, Solute carrier family 15 member 1 (Rattus norvegicus, UniProt P51574); experiment: TP_TRANSPORTER: inhibition of D-Phe-L-Gln uptake in Xenopus laevis oocytes; format: functional, cell-based, Oocyte
T2 sequence (P51574 whole entry): T1 sequence (whole entry)

| Activity [1] | Ki [2] | SMILES |
| --- | --- | --- |
| substrate [+] | – | NC(=O)CC[C@H](NC(=O)[C@H](N)Cc1ccccc1)C(=O)O |
| – | 4.3 mM | CCOC(=O)[C@H](CCc1ccccc1)N[C@@H](C)C(=O)N1CCC[C@H]1C(=O)O [ENALAPRIL] |
| – | 8.7 mM | C[C@H](CS)C(=O)N1CCC[C@H]1C(=O)O [CAPTOPRIL] |
